Data as given in patent US11161864B2, “Sting agonists” (Venenum Biodesign, LLC, priority 2018, dated 2021).

How the values were obtained:
human STING (WT) = human STING (WT) (Homo sapiens (Human), UniProt Q86WV6, H232R); test: Thermal shift binding assay, human STING (WT); details: 100 μM compound, 5 μM STING protein; read-out: Human STING(WT) Tm Shift
human STING (R232H) = human STING (R232H) (Homo sapiens, UniProt Q86WV6); test: Thermal shift binding assay, human STING (R232H); details: 100 μM compound, 5 μM STING protein; read-out: Human STING(R232H) Tm Shift
CT-26 tumor = CT-26 tumor bearing mice, intra-tumoral treatment and re-challenge; details: for Number of surviving mice: 50 μg intra-tumoral Days 0, 3, 7; for Number of surviving mice in the re-challenge: mice with complete regression after 50 μg, re-challenged with CT-26, no further treatment
[1] = target: wild-type (WT) truncated human STING protein, amino acids 155-379 (Homo sapiens (Human), UniProt Q86WV6, H232R); test: Human WT STING [3H] 2′,3′-cGAMP scintillation proximity competition binding assay; details: read-out: Human WT Binding IC50
From the text: (§1) A human STING [^3H] 2′,3′-cGAMP scintillation proximity competition binding assay was utilized to detect binding of compounds to STING protein. […] The protein encoding plasmid contained a HIS tag, followed by an Avi tag and then a SUMO tag, which were followed by the STING coding sequence within the pET-28a (+) vector. The plasmid was transfected into a BL21 (DE3)/BirA E. coli co-expression strain. Protein was purified from the bacterial lysate using a cobalt-affinity column. The purified protein was dialyzed against PBS and then 20% glycerol was added prior to storage at −80° C.
(§2) 2′,3′-cGAMP in assay buffer (50 mM Tris pH 7.5, 100 mM NaCl, 0.1% Fatty Acid Free BSA). Test compounds (2.5 μL) were added to the plate first followed by a 25 μL mixture of STING protein, streptavidin PVT SPA beads (Perkin Elmer) and 10 μL [^3H] 2′,3′-cGAMP. Plates were incubated at room temperature for 18 hrs and read on a Wallac MicroBeta TriLux (Perkin Elmer).

[2] = system: STING pathway, THP1 cells; test: Human IFN-α/β induction assay (THP1 supernatants on HEK-Blue IFN-α/β reporter cells); format: cell-based; details: THP1 cells 5 hrs, HEK-Blue reporter cells 24 hrs
Method: Genetically engineered human type-1 Interferons (IFN-α/β) sensor cells-HEK Blue™ IFNα/β cells (Invivogen) were employed to measure the type-1 IFNs produced by THP1 cells that are treated with activators of STING. The human embryonic (HEK) Blue™ cells are specially designed to monitor the activation of JAK/STAT pathway induced by type 1 IFNs. Briefly, THP1 cells are treated with compounds for 5 hrs. In the second step, supernatants of THP1 cells are transferred to HEK Blue™ IFNα/β reporter cells and incubated for 24 hrs. The secreted embryonic alkaline phosphatase (SEAP) activity in the supernatants of HEK blue IFNα/3 reporter cells is measured and used to determine the quantities of IFNs.
HEK-Blue IFN-α/β reporter cells (Invivogen) were used to measure the secretion of IFN-α/β into culture supernatants of THP1 cells following STING pathway activation. In the first step, THP1 cells were cultured in presence of STING activators for 5 hrs at 37° C., in a 5% CO2 tissue culture incubator, which facilitates the release of IFN-α/β into the supernatants. In the second step, cell supernatants from THP1 cells were transferred to HEK-Blue IFN-α/β reporter cells and incubated at 37° C., in a 5% CO2 incubator for 24 hrs. HEK-Blue IFN-α/β reporter cells are specifically designed to monitor the activation of JAK-STAT pathway activation by type 1 IFNs. These cells express a secreted embryonic alkaline phosphatase (SEAP) reporter gene under the control of ISG54 promoter, which is a well-known interferon stimulatory gene activated by type 1 IFNs. Upon IFN-α/β stimulation, HEK-Blue IFN-α/β reporter cells activate the JAK-STAT pathway and subsequently the expression of the reporter gene. SEAP which is secreted in the supernatant is easily detectable using alkaline phosphatase detection medium (Quanti-Blue reagent from Invivogen).
These assays were run by adding 2 μL of compound stock solution to tissue culture treated 384-well plates with electronic pipettes. Compounds were diluted in autoclaved sterile water, initially spotted on the intermediate dilution plate and then to the assay plate. […]

[3] = target: AQ variant of truncated human STING protein, amino acids 155-379 (Homo sapiens (Human), UniProt Q86WV6, G230A/H232R/R293Q); test: Human AQ STING [3H] 2′,3′-cGAMP scintillation proximity competition binding assay; details: read-out: Human AQ Binding IC50
From the text: as §1, §2

MC-38 tumor [4] = test: MC-38 tumor bearing mice treated with Example 1C and anti-PD-1, anti-PD-L1, anti-CTLA4; format: in vivo, C57BL/6J mice; details: for #Tumor Free Mice after Treatment: 10 animals/group
From the text: The animals were terminated when the tumor size reached 2,000 mm^3.

mouse STING = mouse STING (Mus musculus (Mouse), UniProt Q3TBT3); test: Thermal shift binding assay, mouse STING; details: 100 μM compound, 5 μM STING protein; read-out: Mouse STING Tm Shift
[5] = system: STING pathway genes, THP1 Dual (HAQ) human cells; test: qRT-PCR assay, THP1 Dual (HAQ) human cells; format: cell-based
MC-38 tumor [6] = test: Treatment of MC-38 tumors with Example 1C and radiotherapy; format: in vivo, C57BL/6J mice; details: for #Tumor Free Mice after Treatment: 10 animals/group
From the text: Tumors grew for 7 days to an average size of 100 mm^3. […] On Days −2, −1 and 0 received 5 Gy of radiation targeted to the tumor using the Small Animal Radiation Research Platform (SARRP) manufactured by Xstrahl Inc. Radiotherapy treatments were given according to the outline in Table 18. […] Radiotherapy treatments were given according to the outline in Table 19.

[7] = target: human STING (G230A-R293Q) (Homo sapiens (Human), UniProt Q86WV6, G230A/H232R/R293Q); test: Thermal shift binding assay, human STING (AQ); details: 100 μM compound, 5 μM STING protein; read-out: Human STING(AQ) Tm Shift
[8] = system: STING signaling, RAW-Dual reporter cells; test: Measurement of mouse IFN-β (ELISA); format: cell-based; details: Mus musculus, […]
From the text: Mouse Interferon-β (IFN-β) in the supernatants of murine macrophages treated with STING activators was quantified using sandwich enzyme linked immunosorbent assay (ELISA). Briefly, IFN-β binds to plates coated with antibody and detection is accomplished using a detection antibody followed by streptavidin conjugated to horseradish peroxidase. Tetramethyl-benzidine is used as the substrate in this kit (PBL Assay Science). […] In this invention, mouse IFN-β ELISA is used to determine the potency of compound on STING pathway activation in mouse macrophages.
Murine macrophage derived cell line RAW-Dual reporter cells (Invivogen) were used to measure the IFN-β produced by STING signaling activation. Briefly, 20,000 cells in 27 μL were seeded into tissue culture treated 384-well plate that contained 3 μL of test compound. Cells were incubated at 37° C., in a 5% CO2 incubator for 5.5 hours. Supernatants from treated cells were diluted 20-fold and prior to measurement of IFN-β levels using ELISA kit (PBL Assay Science). 100 μL of diluted sample was added to ELISA plate. Plates were incubated at RT for 1 hour with shaking at 650 rpm. Post incubation, samples were aspirated from wells and the wells were washed 4 times. Diluted antibody (50 μL) was added to plates and incubated at RT for 30 minutes with shaking, followed by aspiration of antibody and 4× washes. Diluted HRP (horseradish peroxidase) solution (50 μL) was added and incubated for 10 minutes, followed by aspiration of the solution and 4× wash steps. After the final wash steps, plates were incubated with 100 μL of TMB (tetramethyl benzidine) substrate for 10 minutes, followed by addition of 100 μL of stop solution and plates were read on Envision plate reader for optical density.

MC-38 tumor [9] = test: MC-38 tumor bearing mice treated with Example 1C and anti-PD-1
[10] = CTLA4 + PD-L1 (5 + 5 mg/kg) + 5 μg Example 1C
[11] = Iso Ab (10 mg/kg) + 5 μg Example 1C
[12] = PD1 + PD-L1 (5 + 5 mg/kg) + 5 μg Example 1C
[13] = Example 1C 5 μg IT Day 0, 3, 7, 14, no RT
[14] = RT (5 Gy) Day −1, 0 / Example 1C 5 μg IT Day 0, 3, 7, 14
[15] = RT (5 Gy) Day −2, −1, 0 / Example 1C 5 μg IT Day 0, 3, 7, 14

Chain of human STING (WT) (Q86WV6 155-379 H232R): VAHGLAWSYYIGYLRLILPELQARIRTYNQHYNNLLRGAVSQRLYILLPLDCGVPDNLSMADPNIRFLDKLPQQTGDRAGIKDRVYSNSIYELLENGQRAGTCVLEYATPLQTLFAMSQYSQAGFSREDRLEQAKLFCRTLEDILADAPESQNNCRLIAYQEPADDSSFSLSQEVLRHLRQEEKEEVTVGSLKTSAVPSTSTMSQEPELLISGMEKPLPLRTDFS
Chain of wild-type (WT) truncated human STING protein, amino acids 155-379 (Q86WV6 155-379 H232R): as above
Chain of mouse STING (Q3TBT3 154-378): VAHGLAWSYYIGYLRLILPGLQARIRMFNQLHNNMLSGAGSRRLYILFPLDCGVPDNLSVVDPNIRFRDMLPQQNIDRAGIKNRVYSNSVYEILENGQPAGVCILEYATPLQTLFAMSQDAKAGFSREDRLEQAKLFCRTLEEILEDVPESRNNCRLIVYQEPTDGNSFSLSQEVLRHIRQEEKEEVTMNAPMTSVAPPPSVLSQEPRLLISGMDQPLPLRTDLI
Chain of AQ variant of truncated human STING protein, amino acids 155-379 (Q86WV6 155-379 G230A/H232R/R293Q): as the sequence (Q86WV6 155-379 H232R) above, with G76A, R139Q counted along it
Chain of human STING (G230A-R293Q) (Q86WV6 155-379 G230A/H232R/R293Q): as the sequence (Q86WV6 155-379 H232R) above, with G76A, R139Q counted along it

Structure (SMILES): Nc1nc2c(ncn2[C@@H]2O[C@@H]3COP(=O)(S)OCCn4c(nc5cncnc54)COP(=O)(S)O[C@@H]2[C@@H]3F)c(=O)[nH]1 (single isomer, unassigned) [Example 1C]
- ΔTm at 100 µM (human STING (WT)): 10.1 to 20 °C
- ΔTm at 100 µM (human STING (R232H)): 5 to 10 °C
- Number of surviving mice (CT-26 tumor; Day 0): 10/10
- Number of surviving mice (CT-26 tumor; Day 3): 10/10
- Number of surviving mice (CT-26 tumor; Day 7): 10/10
- Number of surviving mice (CT-26 tumor; Day 10): 10/10
- Number of surviving mice (CT-26 tumor; Day 14): 10/10
- Number of surviving mice (CT-26 tumor; Day 17): 10/10
- Number of surviving mice (CT-26 tumor; Day 20): 10/10
- Number of surviving mice (CT-26 tumor; Day 23): 10/10
- Number of surviving mice (CT-26 tumor; Day 35): 8/10
- Number of surviving mice in the re-challenge (CT-26 tumor; Rechallenge Day 0): 8/8
- Number of surviving mice in the re-challenge (CT-26 tumor; Rechallenge Day 7): 8/8
- Number of surviving mice in the re-challenge (CT-26 tumor; Rechallenge Day 11): 8/8
- Number of surviving mice in the re-challenge (CT-26 tumor; Rechallenge Day 14): 8/8
- Number of surviving mice in the re-challenge (CT-26 tumor; Rechallenge Day 17): 8/8
- Number of surviving mice in the re-challenge (CT-26 tumor; Rechallenge Day 20): 8/8
- Number of surviving mice in the re-challenge (CT-26 tumor; Rechallenge Day 24): 8/8
- Number of surviving mice in the re-challenge (CT-26 tumor; Rechallenge Day 27): 8/8
- Number of surviving mice in the re-challenge (CT-26 tumor; Rechallenge Day 30): 8/8
- Number of surviving mice in the re-challenge (CT-26 tumor; Rechallenge Day 33): 8/8
- IC50 [1]: < 1000 nM
- EC50 [2]: < 5000 nM
- IC50 [3]: < 1000 nM
- #Tumor Free Mice after Re-challenge (MC-38 tumor [4]; [10]): 6/6
- #Tumor Free Mice after Treatment (MC-38 tumor [4]; [10]): 6/6
- #Tumor Free Mice after Re-challenge (MC-38 tumor [4]; [11]): 1
- #Tumor Free Mice after Treatment (MC-38 tumor [4]; [11]): 2
- #Tumor Free Mice after Re-challenge (MC-38 tumor [4]; [12]): 5
- #Tumor Free Mice after Treatment (MC-38 tumor [4]; [12]): 8
- ΔTm at 100 µM (mouse STING): > 20 °C
- increase in CXCL10 [5]: 1000 fold
- increase in IL-6 compared to Control [5]: 300 fold
- increase of IFN-β mRNA compared to ADU-S100 [5]: 30 fold
- increase of IFN-β mRNA compared to Control [5]: 4000 fold
- #Tumor Free Mice after Re-challenge (MC-38 tumor [6]; [13]): 0/0
- #Tumor Free Mice after Treatment (MC-38 tumor [6]; [13]): 0/0
- #Tumor Free Mice after Re-challenge (MC-38 tumor [6]; [14]): 3
- #Tumor Free Mice after Treatment (MC-38 tumor [6]; [14]): 4
- #Tumor Free Mice after Re-challenge (MC-38 tumor [6]; [15]): 7
- #Tumor Free Mice after Treatment (MC-38 tumor [6]; [15]): 8
- ΔTm at 100 µM [7]: > 20 °C
- EC50 [8]: < 5000 nM
- Number of surviving mice (MC-38 tumor [9]; 5 μg Example 1C + 10 mg/kg Anti-PD-1, Day 0): 10/10
- Number of surviving mice (MC-38 tumor [9]; 5 μg Example 1C + 10 mg/kg Anti-PD-1, Day 3): 10/10
- Number of surviving mice (MC-38 tumor [9]; 5 μg Example 1C + 10 mg/kg Anti-PD-1, Day 6): 10/10
- Number of surviving mice (MC-38 tumor [9]; 5 μg Example 1C + 10 mg/kg Anti-PD-1, Day 10): 10/10
- Number of surviving mice (MC-38 tumor [9]; 5 μg Example 1C + 10 mg/kg Anti-PD-1, Day 14): 10/10
- Number of surviving mice (MC-38 tumor [9]; 5 μg Example 1C + 10 mg/kg Anti-PD-1, Day 17): 10/10
- Number of surviving mice (MC-38 tumor [9]; 5 μg Example 1C + 10 mg/kg Anti-PD-1, Day 21): 10/10
- Number of surviving mice (MC-38 tumor [9]; 5 μg Example 1C + 10 mg/kg Anti-PD-1, Day 24): 10/10
- Number of surviving mice (MC-38 tumor [9]; 5 μg Example 1C + 10 mg/kg Anti-PD-1, Day 27): 9/10
- Number of surviving mice (MC-38 tumor [9]; 5 μg Example 1C + 10 mg/kg Anti-PD-1, Day 30): 8/10
- Number of surviving mice (MC-38 tumor [9]; 5 μg Example 1C + 10 mg/kg Anti-PD-1, Day 34): 7/10
- Number of surviving mice (MC-38 tumor [9]; 5 μg Example 1C intra-tumoral Days 0, 3, 7, Day 0): 10/10
- Number of surviving mice (MC-38 tumor [9]; 5 μg Example 1C intra-tumoral Days 0, 3, 7, Day 3): 10/10
- Number of surviving mice (MC-38 tumor [9]; 5 μg Example 1C intra-tumoral Days 0, 3, 7, Day 6): 10/10
- Number of surviving mice (MC-38 tumor [9]; 5 μg Example 1C intra-tumoral Days 0, 3, 7, Day 10): 10/10
- Number of surviving mice (MC-38 tumor [9]; 5 μg Example 1C intra-tumoral Days 0, 3, 7, Day 14): 10/10
- Number of surviving mice (MC-38 tumor [9]; 5 μg Example 1C intra-tumoral Days 0, 3, 7, Day 17): 10/10
- Number of surviving mice (MC-38 tumor [9]; 5 μg Example 1C intra-tumoral Days 0, 3, 7, Day 21): 10/10
- Number of surviving mice (MC-38 tumor [9]; 5 μg Example 1C intra-tumoral Days 0, 3, 7, Day 24): 10/10
- Number of surviving mice (MC-38 tumor [9]; 5 μg Example 1C intra-tumoral Days 0, 3, 7, Day 27): 7/10
- Number of surviving mice (MC-38 tumor [9]; 5 μg Example 1C intra-tumoral Days 0, 3, 7, Day 30): 3/10
- Number of surviving mice (MC-38 tumor [9]; 5 μg Example 1C intra-tumoral Days 0, 3, 7, Day 34): 1/10
